Measured values reported in PubChem BioAssay AID194 (DTP/NCI, 2004).
Several values for one entry are separate records, joined by “and”; a condition that tells them apart may be missing. Equal values may be shown once. Records with an inconclusive call do not appear.

Test system: BDF1 mice, B16 melanoma s.c., survival/tumor T/C
Experiment: NCI In Vivo Anticancer Drug Screen. Data for tumor model B16 Melanoma (subcutaneous) in B6D2F1 (BDF1) mice
Procedure: The antitumor activity of compounds was measured in mice bearing transplantable tumors. Survival or tumor size were measured and the results are expressed as the measurement made in the treated group (T) divided by the measurement made in the vehicle treated control group (C). The tumor model used in this assay is B16 Melanoma (subcutaneous) in B6D2F1 (BDF1) mice

`Cc1c(N)nc([C@H](CC(N)=O)NC[C@H](N)C(N)=O)nc1C(=O)N[C@H](C(=O)N[C@H](C)[C@@H](O)[C@H](C)C(=O)N[C@H](C(=O)NCCc1nc(-c2nc(C(=O)NCCC[S+](C)C)cs2)cs1)[C@@H](C)O)C(OC1OC(CO)C(O)C(O)C1OC1OC(CO)C(O)C(OC(N)=O)C1O)c1cnc[nH]1` (stereo partly specified) was tested, and the T/C (endpoint: median survival time, dose: 1.0 mg/kg/injection, schedule: Q01DX009 (ip), vehicle: saline, higher = longer survival) was 120 % of control, the T/C (endpoint: median survival time, dose: 2.0 mg/kg/injection, schedule: Q01DX009 (ip), vehicle: water, higher = longer survival) was 152 % of control and 160 % of control and the T/C (endpoint: median survival time, dose: 3.0 mg/kg/injection, schedule: Q01DX005 (ip), vehicle: water, higher = longer survival) was 118 % of control. For the same compound, the T/C (endpoint: median survival time, dose: 3.0 mg/kg/injection, schedule: Q01DX009 (ip), vehicle: saline, higher = longer survival) was 119 % of control, the T/C (endpoint: median survival time, dose: 3.0 mg/kg/injection, schedule: Q01DX009 (ip), vehicle: water, higher = longer survival) was 96 % of control and the T/C (endpoint: median survival time, dose: 3.12 mg/kg/injection, schedule: Q01DX009 (ip), vehicle: Klucel (hydroxypropylcellulose) (HPC), higher = longer survival) was 171 % of control. For the same compound, the T/C (endpoint: median survival time, dose: 4.0 mg/kg/injection, schedule: Q01DX009 (ip), vehicle: water, higher = longer survival) was 165 % of control and 179 % of control, the T/C (endpoint: median survival time, dose: 6.0 mg/kg/injection, schedule: Q01DX005 (ip), vehicle: water, higher = longer survival) was 118 % of control and the T/C (endpoint: median survival time, dose: 6.0 mg/kg/injection, schedule: Q01DX009 (ip), vehicle: saline, higher = longer survival) was 121 % of control. The T/C (endpoint: median survival time, dose: 6.0 mg/kg/injection, schedule: Q01DX009 (ip), vehicle: water, higher = longer survival) was 109 % of control, the T/C (endpoint: median survival time, dose: 6.25 mg/kg/injection, schedule: Q01DX009 (ip), vehicle: Klucel (hydroxypropylcellulose) (HPC), higher = longer survival) was 175 % of control and the T/C (endpoint: median survival time, dose: 8.0 mg/kg/injection, schedule: Q01DX009 (ip), vehicle: water, higher = longer survival) was 162 % of control and 185 % of control. For the same compound, the T/C (endpoint: median survival time, dose: 12.0 mg/kg/injection, schedule: Q01DX009 (ip), vehicle: water, higher = longer survival) was 112 % of control, the T/C (endpoint: median survival time, dose: 12.5 mg/kg/injection, schedule: Q01DX009 (ip), vehicle: Klucel (hydroxypropylcellulose) (HPC), higher = longer survival) was 168 % of control and the T/C (endpoint: median survival time, dose: 16.0 mg/kg/injection, schedule: Q01DX009 (ip), vehicle: water, higher = longer survival) was 158 % of control (2×) and 159 % of control. For the same compound, the T/C (endpoint: median survival time, dose: 16.0 mg/kg/injection, schedule: Q01DX010 (ip), vehicle: water, higher = longer survival) was 93 % of control, the T/C (endpoint: median survival time, dose: 20.0 mg/kg/injection, schedule: Q01DX009 (ip), vehicle: saline, higher = longer survival) was 161 % of control and the T/C (endpoint: median survival time, dose: 24.0 mg/kg/injection, schedule: Q01DX009 (ip), vehicle: saline, higher = longer survival) was 112 % of control. The T/C (endpoint: median survival time, dose: 25.0 mg/kg/injection, schedule: Q01DX009 (ip), vehicle: Klucel (hydroxypropylcellulose) (HPC), higher = longer survival) was 100 % of control, the T/C (endpoint: median survival time, dose: 32.0 mg/kg/injection, schedule: Q01DX009 (ip), vehicle: water, higher = longer survival) was 171 % of control and the T/C (endpoint: median tumor weight (est.), dose: 8.0 mg/kg/injection, schedule: Q01DX009 (ip), vehicle: water, higher = larger tumour) was 47 % of control. The T/C (endpoint: median tumor weight (est.), dose: 12.0 mg/kg/injection, schedule: Q01DX009 (ip), vehicle: saline, higher = larger tumour) was 22 % of control and 43 % of control, the T/C (endpoint: median tumor weight (est.), dose: 16.0 mg/kg/injection, schedule: Q01DX009 (ip), vehicle: water, higher = larger tumour) was 33 % of control and the T/C (endpoint: median tumor weight (est.), dose: 24.0 mg/kg/injection, schedule: Q01DX009 (ip), vehicle: saline, higher = larger tumour) was 18 % of control and 27 % of control.

With `Cc1c(N)nc(C(CC(N)=O)NCC(N)C(N)=O)nc1C(=O)NC(C(=O)NC(C)C(O)C(C)C(=O)NC(C(=O)NCCc1nc(-c2nc(C(=O)NCCCNCCCCN)cs2)cs1)C(C)O)C(OC1OC(CO)C(O)C(O)C1OC1OC(CO)C(O)C(OC(N)=O)C1O)c1cnc[nH]1` (stereo unspecified) the T/C (endpoint: median survival time, dose: 1.56 mg/kg/injection, schedule: Q01DX009 (ip), vehicle: water, higher = longer survival) was 164 % of control, the T/C (endpoint: median tumor weight (est.), dose: 1.56 mg/kg/injection, schedule: Q01DX009 (ip), vehicle: water, higher = larger tumour) was 41 % of control and the T/C (endpoint: median tumor weight (est.), dose: 3.12 mg/kg/injection, schedule: Q01DX009 (ip), vehicle: water, higher = larger tumour) was 24 % of control. For the same compound, the T/C (endpoint: median tumor weight (est.), dose: 6.25 mg/kg/injection, schedule: Q01DX009 (ip), vehicle: water, higher = larger tumour) was 12 % of control.

In the case of `C[C@]12C=CC(=O)C=C1CC[C@@H]1[C@@H]2C(=O)C[C@@]2(C)[C@H]1CC[C@]2(O)C(=O)CO`, the T/C (endpoint: median survival time, dose: 50.0 mg/kg/injection, schedule: Q01DX009 (ip), vehicle: Klucel (hydroxypropylcellulose) (HPC), higher = longer survival) is reported as 95 % of control and 123 % of control, the T/C (endpoint: median survival time, dose: 50.0 mg/kg/injection, schedule: Q01DX009 (ip), vehicle: saline with Tween-80, higher = longer survival) is reported as 124 % of control and the T/C (endpoint: median survival time, dose: 50.0 mg/kg/injection, schedule: Q01DX009 (ip), vehicle: saline, higher = longer survival) is reported as 116 % of control. The T/C (endpoint: median survival time, dose: 100.0 mg/kg/injection, schedule: Q01DX009 (ip), vehicle: saline with Tween-80, higher = longer survival) was 151 % of control, the T/C (endpoint: median survival time, dose: 100.0 mg/kg/injection, schedule: Q01DX009 (ip), vehicle: saline, higher = longer survival) was 100 % of control and the T/C (endpoint: median survival time, dose: 200.0 mg/kg/injection, schedule: Q01DX009 (ip), vehicle: saline with Tween-80, higher = longer survival) was 157 % of control and 168 % of control. For the same compound, the T/C (endpoint: median survival time, dose: 400.0 mg/kg/injection, schedule: Q01DX009 (ip), vehicle: saline with Tween-80, higher = longer survival) was 159 % of control, the T/C (endpoint: median tumor weight (est.), dose: 50.0 mg/kg/injection, schedule: Q01DX009 (ip), vehicle: Klucel (hydroxypropylcellulose) (HPC), higher = larger tumour) was 12 % of control and 30 % of control and the T/C (endpoint: median tumor weight (est.), dose: 50.0 mg/kg/injection, schedule: Q01DX009 (ip), vehicle: saline with Tween-80, higher = larger tumour) was 26 % of control. The T/C (endpoint: median tumor weight (est.), dose: 100.0 mg/kg/injection, schedule: Q01DX009 (ip), vehicle: Klucel (hydroxypropylcellulose) (HPC), higher = larger tumour) was 37 % of control, the T/C (endpoint: median tumor weight (est.), dose: 100.0 mg/kg/injection, schedule: Q01DX009 (ip), vehicle: saline with Tween-80, higher = larger tumour) was 41 % of control and the T/C (endpoint: median tumor weight (est.), dose: 200.0 mg/kg/injection, schedule: Q01DX009 (ip), vehicle: Klucel (hydroxypropylcellulose) (HPC), higher = larger tumour) was 22 % of control. The T/C (endpoint: median tumor weight (est.), dose: 200.0 mg/kg/injection, schedule: Q01DX009 (ip), vehicle: saline with Tween-80, higher = larger tumour) was 12 % of control.
